The target in one data set is T1, pepsin (Sus scrofa, UniProt P00791).
T1 construct: purchased
Put plainly: Anti-peptic activity in vitro (bovine serum albumin as substrate). Format: biochemical. To be noted: for IC50: obtained graphically, read-out: ID50 (50% inhibiting dose) (converted); for inhibition at 125 µg/mL: sample concentration 0.125 mg/ml; for inhibition at 250 µg/mL: sample concentration 0.250 mg/ml; for inhibition at 500 µg/mL: sample concentration 0.500 mg/ml; for inhibition at 1000 µg/mL: sample concentration 1.000 mg/ml. The protocol: Anti-peptic activity of the compounds is tested in vitro according to V. K. Thiemer (Arznei-Forsch 22 (6), PP. 1086, 1972), using bovine serum albumin as a substrate and commercially available pepsin.
Also ID50 (50% inhibiting dose) is obtained graphically.

Data set [1] can be described thus: Stability on storage (% residue of the original compound). Format: physicochemical. Conditions: for remaining at 96 h: 40° C.; for remaining at 192 h: 60° C.; for remaining at 240 h: 70° C.; for remaining at 288 h: 80° C. The text has this: The data are expressed in % residue of the original compounds after the storage in each condition.
For the next data set, the system named is Shay's rat. Put plainly: Anti-ulcerative activity, pylorus ligation (Shay's rat). It counts as in vivo. Conditions: perorally, 16 hours after ligation; for inhibition in vivo at 100 mg/kg / inhibition in vivo at 500 mg/kg: Rattus norvegicus, po, 16 h, read-out: % inhibition (ulcer index). The procedure: In order to ascertain the anti-ulcerative activity […], Shay's rat (Gastro enterology 26, P. 906) is selected. Rats are fasted for 48 hours and pylorus ligation is carried out under light anesthesia. Drug is given perorally. 16 hours after ligation the animals are sacrificed and the stomach is removed. The induced erosion is measured in area and scored as ulcer index (U.I.). The data are expressed as % inhibition to the control value from the equation described below.

Data set [2] can be described thus: Acute toxicity (Litchfield & Wilcoxon method). To be noted: rat, in vivo. The procedure: The acute toxicity of Compound 3 is determined by Litchfield & Wilcoxon method using SD rats.

SMILES strings stand for the structures. Counter-ions that a name gives are not always drawn.

T1 sequence (P00791 60-385): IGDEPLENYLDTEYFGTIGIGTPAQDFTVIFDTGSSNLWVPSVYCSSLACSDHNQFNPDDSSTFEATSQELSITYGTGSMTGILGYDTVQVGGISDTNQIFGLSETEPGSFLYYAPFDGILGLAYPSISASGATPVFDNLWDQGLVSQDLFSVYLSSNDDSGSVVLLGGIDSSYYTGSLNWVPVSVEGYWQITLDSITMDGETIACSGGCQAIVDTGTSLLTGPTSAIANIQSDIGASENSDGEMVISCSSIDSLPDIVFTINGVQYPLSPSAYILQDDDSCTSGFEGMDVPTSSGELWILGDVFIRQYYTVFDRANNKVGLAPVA

As to `Cc1cc(S(=O)(=O)O)c2c(C)ccc(C(C)C)cc1-2` [GAS, sodium guaiazulene-3-sulfonate, reference compound], at pepsin, the IC50 was 1.29 mM, the inhibition at 125 µg/mL was determined as 14.6%, the inhibition at 250 µg/mL was determined as 50.4% and the inhibition at 500 µg/mL was 58.6%. The inhibition at 1000 µg/mL on pepsin turned out to be 75.1%. In data set [1], this molecule showed a fraction remaining at 96 h of 100%, a share remaining at 192 h of 51.3%, an amount remaining at 240 h of 9.3% and an amount remaining at 288 h of 1.5%.
As for `CCCCCc1cc(S(=O)(=O)O)c2cc(C(C)C)ccc(OC)c1-2` [compound 34, Sodium 7-isopropyl-4-methoxy-3-pentyl-azulene sulfonate], the inhibition in vivo at 100 mg/kg in the data set on Shay's rat (100 mg/kg) was -14.6%.
On the same count and under the same terms, in the case of `CCc1cc(S(=O)(=O)O)c2cc(C(C)C)cccc1-2` [compound 38, 7-isopropyl-3-ethyl-azulene sulfonic acid aluminum salt] it was 40.3%.
For `CCCCCc1cc(S(=O)(=O)O)c2ccccc(OC)c1-2` [compound 28, Sodium 4-methoxy-3-pentyl-azulene sulfonate], the inhibition in vivo at 100 mg/kg with Shay's rat (100 mg/kg) is 42%.
As to `CCc1cc(S(=O)(=O)O)c2ccc(C(C)C)ccc1-2` [compound 4, Sodium 3-ethyl-6-isopropyl-azulene sulfonate], on pepsin, the IC50 was 1.83 mM, the inhibition at 125 µg/mL stood at 17.3%, the inhibition at 250 µg/mL amounted to 28.9% and the inhibition at 500 µg/mL was 65.7%. In addition, at pepsin, the inhibition at 1000 µg/mL amounted to 55.8%. In addition, the inhibition in vivo at 500 mg/kg with Shay's rat turned out to be 100%.
In the case of `CC(C)=CCC[C@H](C)c1cc(S(=O)(=O)O)c2cccccc1-2` [compound 8, Sodium 3-(1'-S-1',5'-dimethyl-4'-hexene)-azulene sulfonate], the inhibition in vivo at 500 mg/kg with Shay's rat came to 69.9%.
Take `CCCCc1cc(S(=O)(=O)O)c2cc(C(C)C)ccc(OC)c1-2` [compound 33, Sodium 7-isopropyl-4-methoxy-3-butyl-azulene sulfonate]: the inhibition in vivo at 100 mg/kg in the data set on Shay's rat (100 mg/kg) came out at 64.8%.
As for `CC(C)=CCC[C@@H](C)c1cc(S(=O)(=O)O)c2cc(C(C)C)cccc1-2` [compound 21, Sodium 7-isopropyl-3-(1'-R-1',5'-dimethyl-4'-hexene)-azulene sulfonate], in the data set on Shay's rat (100 mg/kg), the inhibition in vivo at 100 mg/kg worked out at 14.5%.
Take `Cc1cc(S(=O)(=O)O)c2cc(C(C)C)cccc1-2` [compound 13, Sodium 3-methyl-7-isopropyl-azulene sulfonate]: the “% inhibition (ulcer index)” value in the data set on Shay's rat (100 mg/kg) was determined as 69.7%.
`CCCc1cc(S(=O)(=O)O)c2cc(C(C)C)cccc1-2` [compound 17, Sodium 7-isopropyl-3-n-propyl-azulene sulfonate]: the inhibition in vivo at 100 mg/kg in the data set on Shay's rat (100 mg/kg) was 31.2%.
As to `CCCc1cc(S(=O)(=O)O)c2cccccc1-2` [compound 12, Sodium 3-propyl-azulene sulfonate], the inhibition in vivo at 100 mg/kg in the data set with Shay's rat (100 mg/kg) was 78.5%.
Take `CCc1cc(S(=O)(=O)O)c2cccccc1-2` [compound 36, 3-ethyl-azulene sulfonic acid aluminum salt]: in the data set on Shay's rat (100 mg/kg), the inhibition in vivo at 100 mg/kg stood at 28.6%.
Consider `COc1ccccc2c(S(=O)(=O)O)cc(C)c1-2` [compound 24, Sodium 4-methoxy-3-methyl-azulene sulfonate], for which, in the data set on Shay's rat (100 mg/kg), the inhibition in vivo at 100 mg/kg came to 63.4%.
Still for that read-out and setting: then `COc1ccc(C(C)C)cc2c(S(=O)(=O)O)cc(C)c1-2` [compound 30, Sodium 7-isopropyl-4-methoxy-3-methyl-azulene sulfonate], with 58.7%; and `CC(C)c1cccc2c(Cc3ccccc3)cc(S(=O)(=O)O)c-2c1` [compound 23, Sodium 7-isopropyl-3-benzyl-azulene sulfonate], with 9.8%; and `CC(C)=CCC[C@H](C)c1cc(S(=O)(=O)O)c2cc(C(C)C)cccc1-2` [compound 22, Sodium 7-isopropyl-3-(1'-S-1',5'-dimethyl-4'-hexene)-azulene sulfonate], with -19.5%.
Take `CCc1cc(S(=O)(=O)O)c2cc(C(C)C)cccc1-2` [compound 3, Sodium 3-ethyl-7-isopropyl-azulene sulfonate]: on pepsin, the IC50 is 1.07 mM, the inhibition at 125 µg/mL worked out at 17.3%, the inhibition at 250 µg/mL amounted to 47.6% and the inhibition at 500 µg/mL amounted to 63.6%. Besides, the inhibition at 1000 µg/mL at pepsin worked out at 97.1%. For the same molecule, the inhibition in vivo at 500 mg/kg in the data set with Shay's rat is 100%. Besides, in data set [1], the amount remaining at 96 h is 100%, the fraction remaining at 192 h is 100%, the fraction remaining at 240 h worked out at 100% and the fraction remaining at 288 h stood at 100%. In addition, the “stability, in words” value in data set [1] (compared with sodium guaiazulene sulfonate) was “greatly improved”. The LD50 in data set [2] (ip, I.P., female, 95% confidence limits) is 180 mg/kg. In data set [2] (ip, I.P., male, 95% confidence limits), this molecule displayed an LD50 of 165 mg/kg. Further, in data set [2] (iv, I.V., female, 95% confidence limits), the 50% lethal dose (LD50) was 153 mg/kg. The molecule further had an LD50 in data set [2] (iv, I.V., male) of 130 mg/kg. For the same molecule, the median lethal dose (LD50) in data set [2] (po, P.O., female, 95% confidence limits) came out at 1200 mg/kg. Moreover, the LD50 in data set [2] (po, P.O., male, 95% confidence limits) was found to be 1000 mg/kg.
Consider `CCc1cc(S(=O)(=O)O)c2cc(C(C)C)ccc(OC)c1-2` [compound 31, Sodium 7-isopropyl-4-methoxy-3-ethyl-azulene sulfonate], for which the inhibition in vivo at 100 mg/kg in the data set on Shay's rat (100 mg/kg) worked out at 67.6%.
Take `Cc1cc(S(=O)(=O)O)c2cccccc1-2` [compound 35, 3-methyl-azulene sulfonic acid aluminum salt]: the inhibition in vivo at 100 mg/kg with Shay's rat (100 mg/kg) is 16.5%.
Take `CC(C)=CCCC(C)c1cc(S(=O)(=O)O)c2cccccc1-2` (centres unmarked) [compound 5, Sodium 3-(1'-R, S-1',5'-dimethyl-4'-hexene) azulene sulfonate]: at pepsin, the IC50 was 3.79 mM, the inhibition at 125 µg/mL worked out at 0.26%, the inhibition at 250 µg/mL turned out to be 3.57% and the inhibition at 500 µg/mL stood at 24.5%. The inhibition at 1000 µg/mL at pepsin was 50.4%. Moreover, in the data set on Shay's rat, the inhibition in vivo at 500 mg/kg stood at 95.5%.
Consider `CCCCc1cc(S(=O)(=O)O)c2cc(C(C)C)cccc1-2` [compound 18, Sodium 7-isopropyl-3-n-butyl-azulene sulfonate], for which the inhibition in vivo at 100 mg/kg with Shay's rat (100 mg/kg) is 17.2%.
Take `Cc1cc(S(=O)(=O)O)c2cccccc1-2` [compound 1, Sodium 3-methyl-azulene sulfonate]: in the data set with Shay's rat, the inhibition in vivo at 500 mg/kg came to 52.4%.
For `CCCCCCc1cc(S(=O)(=O)O)c2ccccc(OC)c1-2` [compound 29, Sodium 4-methoxy-3-hexyl-azulene sulfonate], the inhibition in vivo at 100 mg/kg with Shay's rat (100 mg/kg) is 38%.
Regarding `CC(C)c1cccc2c(S(=O)(=O)O)ccc-2c1` [compound 16, Sodium 5-isopropyl-azulene sulfonate], the inhibition in vivo at 100 mg/kg in the data set on Shay's rat (100 mg/kg) turned out to be 62%.
As to `CCCCCc1cc(S(=O)(=O)O)c2cc(C(C)C)cccc1-2` [compound 19, Sodium 7-isopropyl-3-n-pentyl-azulene sulfonate], in the data set on Shay's rat (100 mg/kg), the inhibition in vivo at 100 mg/kg is -56.3%.
Take `CCCCc1cc(S(=O)(=O)O)c2ccccc(OC)c1-2` [compound 27, Sodium 4-methoxy-3-butyl-azulene sulfonate]: in the data set on Shay's rat (100 mg/kg), the inhibition in vivo at 100 mg/kg worked out at 66.3%.
Regarding `CCc1cc(S(=O)(=O)O)c2cccccc1-2` [compound 2, Sodium 3-ethyl-azulene sulfonate], in the data set on Shay's rat, the inhibition in vivo at 500 mg/kg was found to be 100%.
`CCCc1cc(S(=O)(=O)O)c2ccccc(OC)c1-2` [compound 26, Sodium 4-methoxy-3-propyl-azulene sulfonate]: the inhibition in vivo at 100 mg/kg in the data set with Shay's rat (100 mg/kg) turned out to be 75.6%.
Same read-out and setting: in the case of `CCCCc1cc(S(=O)(=O)O)c2cccccc1-2` [compound 14, Sodium 3-n-butyl-azulene sulfonate] it was 32.7%.
Regarding `CC(C)=CCCC(C)c1cc(S(=O)(=O)O)c2cc(C(C)C)cccc1-2` (centres unmarked) [compound 20, Sodium 7-isopropyl-3-(1'-R, S-1',5'-dimethyl-4'-hexene)-azulene sulfonate], in the data set on Shay's rat (100 mg/kg), the inhibition in vivo at 100 mg/kg came out at 43.8%.
Turning to `CCc1cc(S(=O)(=O)O)c2ccccc(OC)c1-2` [compound 25, Sodium 4-methoxy-3-ethyl-azulene sulfonate], in the data set with Shay's rat (100 mg/kg), the inhibition in vivo at 100 mg/kg was found to be 75.6%.
Turning to `CCCc1cc(S(=O)(=O)O)c2cc(C(C)C)ccc(OC)c1-2` [compound 32, Sodium 7-isopropyl-4-methoxy-3-propyl-azulene sulfonate], the inhibition in vivo at 100 mg/kg in the data set on Shay's rat (100 mg/kg) came to 44.1%.
Still for that read-out and setting: in the case of `Cc1cc(S(=O)(=O)O)c2cc(C(C)C)cccc1-2` [compound 37, 7-isopropyl-3-methyl-azulene sulfonic acid aluminum salt] it was 58.4%; in that of `CCCCCc1cc(S(=O)(=O)O)c2cccccc1-2` [compound 15, Sodium 3-n-pentyl-azulene sulfonate], 64.3%.

By inhibition is commonly meant the percentage by which the read-out fell short of the control. One may read the amount remaining as what is left of the initial amount, in per cent. Lower therefore signals more turnover. The term LD50 denotes the dose expected to kill half of the subjects tested. Read a high LD50 as lower toxicity.

The values above are taken from patent publication US4595694A, “Azulene derivatives, processes of their synthesis and their uses as anti-ulcerative and anti-inflammatory agents” (Kotobuki Seiyaku Co. Ltd., priority 1983, dated 1986).
